pIC50: −log10 of the molar value. Blank lines part the entries; values can stand above or below the molecule they belong to. The source made the active and inactive calls. The rule behind the calls is not given here.
How the values were obtained:
[1] = Cytotoxicity against mouse RAW264.7 cells assessed as cell viability at 2 to 10 uM measured after 24 hrs; type: toxicity, cell-based; conditions: dose 2-10 µM, read-out: Activity
[2] = tested on: RAW264.7; assay: Antiinflammatory activity in LPS-induced mouse RAW264.7 cells assessed as inhibition of NO production at 2 to 10 uM pretreated for 1 hr followed by LPS addition and measured after 24 hrs by griess reagent based assay; type: functional, cell-based; conditions: dose 2-10 µM, time 25.0 hrs
[3] = tested on: RAW264.7; assay: Antioxidant activity in H2O2-stimulated mouse RAW264.7 cells assessed as protection against cell damage at 2 to 5 uM pretreated for 30 mins followed by H2O2 stimulation and measured after 4 hrs by MTT assay; type: functional, cell-based; conditions: dose 2-5 µM, time 4.5 hrs
[4] = tested on: RAW264.7; assay: Antiinflammatory activity in LPS-induced mouse RAW264.7 cells assessed as inhibition of NO production pretreated for 1 hr followed by LPS addition and measured after 24 hrs by griess reagent based assay; type: functional, cell-based
[5] = tested on: Mus musculus; assay: Antiinflammatory activity in carrageenan-induced Kunming mouse model of paw edema assessed as paw volume at 30 mg/kg, ip pretreated for 1 hr followed by carrageenan administration and measured immediately by digital plethysmometer (reference value: 0.116 +/- 0.042 mL); type: functional
[6] = tested on: Mus musculus; assay: Antiinflammatory activity in carrageenan-induced Kunming mouse model of paw edema assessed as edema inhibition at 30 mg/kg, IG pretreated for 1 hr followed by carrageenan administration and measured after 5 hrs relative to control; type: functional; conditions: po, time 6 hrs
[7] = tested on: Mus musculus; assay: Antiinflammatory activity in carrageenan-induced Kunming mouse model of paw edema assessed as paw volume at 30 mg/kg, ip pretreated for 1 hr followed by carrageenan administration and measured after 5 hrs by digital plethysmometer (reference value: 0.362 +/- 0.016 mL); type: functional; conditions: time 6 hrs
[8] = tested on: Mus musculus; assay: Antiinflammatory activity in carrageenan-induced Kunming mouse model of paw edema assessed as edema inhibition at 30 mg/kg, ip pretreated for 1 hr followed by carrageenan administration and measured after 3 hrs relative to control; type: functional; conditions: time 4 hrs
[9] = tested on: Mus musculus; assay: Antiinflammatory activity in carrageenan-induced Kunming mouse model of paw edema assessed as paw volume at 30 mg/kg, ip pretreated for 1 hr followed by carrageenan administration and measured after 3 hrs by digital plethysmometer (reference value: 0.377 +/- 0.018 mL); type: functional; conditions: time 4 hrs
[10] = tested on: Mus musculus; assay: Antiinflammatory activity in carrageenan-induced Kunming mouse model of paw edema assessed as paw volume at 30 mg/kg, IG pretreated for 1 hr followed by carrageenan administration and measured after 1 hr by digital plethysmometer (reference value: 0.407 +/- 0.023 mL); type: functional; conditions: time 2 hrs
[11] = tested on: Mus musculus; assay: Antiinflammatory activity in carrageenan-induced Kunming mouse model of paw edema assessed as paw volume at 30 mg/kg, IG pretreated for 1 hr followed by carrageenan administration and measured after 5 hrs by digital plethysmometer (reference value: 0.353 +/- 0.024 mL); type: functional; conditions: time 6 hrs
[12] = tested on: Mus musculus; assay: Antiinflammatory activity in carrageenan-induced Kunming mouse model of paw edema assessed as paw volume at 30 mg/kg, IG pretreated for 1 hr followed by carrageenan administration and measured after 3 hrs by digital plethysmometer (reference value: 0.365 +/- 0.044 mL); type: functional; conditions: time 4 hrs
[13] = tested on: Mus musculus; assay: Antiinflammatory activity in carrageenan-induced Kunming mouse model of paw edema assessed as edema inhibition at 30 mg/kg, IG pretreated for 1 hr followed by carrageenan administration and measured after 3 hrs relative to control; type: functional; conditions: po, time 4 hrs
[14] = tested on: Mus musculus; assay: Antiinflammatory activity in carrageenan-induced Kunming mouse model of paw edema assessed as paw volume at 30 mg/kg, ip pretreated for 1 hr followed by carrageenan administration and measured after 1 hr by digital plethysmometer (reference value: 0.395 +/- 0.017 mL); type: functional; conditions: time 2 hrs
[15] = tested on: Mus musculus; assay: Antiinflammatory activity in carrageenan-induced Kunming mouse model of paw edema assessed as edema inhibition at 30 mg/kg, IG pretreated for 1 hr followed by carrageenan administration and measured after 1 hr relative to control; type: functional; conditions: po, time 2 hrs
[16] = tested on: Mus musculus; assay: Antiinflammatory activity in carrageenan-induced Kunming mouse model of paw edema assessed as edema inhibition at 30 mg/kg, ip pretreated for 1 hr followed by carrageenan administration and measured after 5 hrs relative to control; type: functional; conditions: time 6 hrs
[17] = tested on: Mus musculus; assay: Antiinflammatory activity in carrageenan-induced Kunming mouse model of paw edema assessed as paw volume at 30 mg/kg, IG pretreated for 1 hr followed by carrageenan administration and measured immediately by digital plethysmometer (reference value: 0.144 +/- 0.026 mL); type: functional
[18] = tested on: Mus musculus; assay: Antiinflammatory activity in carrageenan-induced Kunming mouse model of paw edema assessed as edema inhibition at 30 mg/kg, ip pretreated for 1 hr followed by carrageenan administration and measured after 1 hr relative to control; type: functional; conditions: time 2 hrs

SMILES: COc1cc(/C=C/C(=O)NCCCN2CCc3cc(Cl)ccc32)cc(OC)c1O
viability at 24 h, 10 µM [1]: > 85%

SMILES: COc1ccc2c(c1)CCN2CCCNC(=O)/C=C/c1cc(OC)c(O)c(OC)c1
viability at 24 h, 10 µM [1]: > 85%

SMILES: COc1ccc2c(c1)CCN2CCCNC(=O)/C=C/c1ccccc1
viability at 24 h, 10 µM [1]: > 85%

SMILES: COc1ccc2c(c1)CCN2CCCNC(=O)/C=C/c1ccc(O)c(Cl)c1
Activity [2]: Active
Activity [3]: Active
viability at 24 h, 10 µM [1]: > 85%

pIC50 [4]: 5.35
SMILES: COc1ccc2c(c1)CCN2CCCNC(=O)/C=C/c1cc(OC)c(OC)c(OC)c1
Activity [2]: Active
Activity [3]: inactive
viability at 24 h, 10 µM [1]: > 85%

pIC50 [4]: 5.39
SMILES: O=C(/C=C/c1ccc(O)cc1)NCCCN1CCc2cc(Cl)ccc21
Activity [2]: Active
Activity [3]: Active
viability at 24 h, 10 µM [1]: > 85%

pIC50 [4]: 5.44
SMILES: O=C(/C=C/c1ccc(O)c(Cl)c1)NCCCN1CCc2cc(Cl)ccc21
Activity [2]: Active
Activity [3]: Active
viability at 24 h, 10 µM [1]: > 85%

SMILES: COc1cc(/C=C/C(=O)NCCCN2CCc3ccccc32)ccc1O
viability at 24 h, 10 µM [1]: > 85%

SMILES: O=C(/C=C/c1cccc(O)c1)NCCCN1CCc2ccccc21
Activity [2]: inactive
viability at 24 h, 10 µM [1]: > 85%

pIC50 [4]: 5.72
SMILES: O=C(/C=C/c1ccc(O)c(O)c1)NCCCN1CCc2ccccc21
Activity [2]: Active
Activity [3]: Active
viability at 24 h, 10 µM [1]: > 85%

pIC50 [4]: 5.68
SMILES: COc1ccc2c(c1)CCN2CCCNC(=O)/C=C/c1ccc(O)c(O)c1
Activity [2]: Active
Activity [3]: Active
viability at 24 h, 10 µM [1]: > 85%

SMILES: O=C(/C=C/c1ccccc1)NCCCN1CCc2cc(Cl)ccc21
viability at 24 h, 10 µM [1]: > 85%

SMILES: COc1ccc2c(c1)CCN2CCCNC(=O)/C=C/c1ccc(O)c([N+](=O)[O-])c1
viability at 24 h, 10 µM [1]: > 85%

SMILES: COc1ccc2c(c1)CCN2CCCNC(=O)/C=C/c1ccc(O)cc1
Activity [2]: Active
Activity [3]: Active
viability at 24 h, 10 µM [1]: > 85%

SMILES: COc1ccc2c(c1)CCN2CCCNC(=O)/C=C/c1cc(C(C)(C)C)c(O)c(C(C)(C)C)c1
viability at 24 h, 10 µM [1]: > 85%

SMILES: O=C(/C=C/c1ccccc1)NCCCN1CCc2ccccc21
viability at 24 h, 10 µM [1]: > 85%

pIC50 [4]: 6.41
SMILES: O=C(/C=C/c1ccc(O)c(O)c1)OCCc1ccccc1 [CAFFEIC ACID PHENETHYL ESTER]
Activity [5]: 0.128 mL
inhibition in vivo at 30 mg/kg [6]: 44.2%
Activity [7]: 0.196 mL
inhibition in vivo at 30 mg/kg [8]: 54.9%
Activity [9]: 0.243 mL
Activity [10]: 0.342 mL
Activity [11]: 0.257 mL
Activity [12]: 0.294 mL
inhibition in vivo at 30 mg/kg [13]: 29.1%
Activity [14]: 0.29 mL
inhibition in vivo at 30 mg/kg [15]: 23.5%
inhibition in vivo at 30 mg/kg [16]: 69.5%
Activity [3]: Active
Activity [17]: 0.125 mL
inhibition in vivo at 30 mg/kg [18]: 38.6%

SMILES: COc1ccc2c(c1)CCN2CCCNC(=O)/C=C/c1ccc(O)c(OC)c1
viability at 24 h, 10 µM [1]: > 85%

SMILES: O=C(/C=C/c1ccc(O)cc1)NCCCN1CCc2ccccc21
Activity [2]: Active
Activity [3]: Active
viability at 24 h, 10 µM [1]: > 85%

SMILES: O=C(/C=C/c1ccc(O)c([N+](=O)[O-])c1)NCCCN1CCc2ccccc21
viability at 24 h, 10 µM [1]: > 85%

SMILES: COc1cc(/C=C/C(=O)NCCCN2CCc3ccccc32)cc(OC)c1O
viability at 24 h, 10 µM [1]: > 85%

SMILES: O=C(/C=C/c1cccc(O)c1)NCCCN1CCc2cc(Cl)ccc21
Activity [2]: inactive
viability at 24 h, 10 µM [1]: > 85%

pIC50 [4]: 5.30
SMILES: COc1cc(/C=C/C(=O)NCCCN2CCc3cc(Cl)ccc32)ccc1O
viability at 24 h, 10 µM [1]: > 85%

SMILES: CC(C)(C)c1cc(/C=C/C(=O)NCCCN2CCc3ccccc32)cc(C(C)(C)C)c1O
viability at 24 h, 10 µM [1]: > 85%

pIC50 [4]: 5.41
SMILES: COc1cc(/C=C/C(=O)NCCCN2CCc3ccccc32)cc(OC)c1OC
Activity [2]: Active
Activity [3]: inactive
viability at 24 h, 10 µM [1]: > 85%

pIC50 [4]: 5.45
SMILES: COc1cc(/C=C/C(=O)NCCCN2CCc3cc(Cl)ccc32)cc(OC)c1OC
Activity [2]: Active
Activity [3]: inactive
viability at 24 h, 10 µM [1]: > 85%

SMILES: CC(C)(C)c1cc(/C=C/C(=O)NCCCN2CCc3cc(Cl)ccc32)cc(C(C)(C)C)c1O
viability at 24 h, 10 µM [1]: > 85%

SMILES: COc1ccc2c(c1)CCN2CCCNC(=O)/C=C/c1cccc(O)c1
Activity [2]: inactive
viability at 24 h, 10 µM [1]: > 85%

SMILES: O=C(/C=C/c1ccc(O)c(Cl)c1)NCCCN1CCc2ccccc21
Activity [2]: Active
Activity [3]: Active
viability at 24 h, 10 µM [1]: > 85%

SMILES: CC(=O)Oc1ccc(/C=C/C(=O)NCCCN2CCc3cc(Cl)ccc32)cc1OC(C)=O
Activity [5]: 0.142 mL
inhibition in vivo at 30 mg/kg [6]: 65.9%
Activity [7]: 0.209 mL
inhibition in vivo at 30 mg/kg [8]: 56.1%
Activity [9]: 0.24 mL
Activity [10]: 0.325 mL
Activity [11]: 0.21 mL
Activity [12]: 0.258 mL
inhibition in vivo at 30 mg/kg [13]: 43.9%
Activity [14]: 0.329 mL
inhibition in vivo at 30 mg/kg [15]: 29.6%
inhibition in vivo at 30 mg/kg [16]: 64%
Activity [17]: 0.136 mL
inhibition in vivo at 30 mg/kg [18]: 24.3%

SMILES: O=C(/C=C/c1ccc(O)c([N+](=O)[O-])c1)NCCCN1CCc2cc(Cl)ccc21
viability at 24 h, 10 µM [1]: > 85%

— ChEMBL document CHEMBL5537118, “Synthesis of cinnamoyl tethered indoline derivatives with anti-inflammatory and antioxidant activities” (Eur J Med Chem, 2024)
